Earlier results as cited in patent publication US20240423896A1, “METHOD FOR IMPROVING THE TACTILE SENSATION OF DYED KERATINOUS FIBRES, IN PARTICULAR HUMAN HAIR” (HENKEL AG & CO. KGAA, priority 2021, published 2024).

Details: 25° C.

Structure (SMILES)	solubility in water	also measured
CCN(Cc1cccc(S(=O)(=O)[O-])c1)c1ccc(C(=C2C=CC(=[N+](CC)Cc3cccc(S(=O)(=O)[O-])c3)C=C2)c2ccccc2S(=O)(=O)[O-])cc1.[Na+].[Na+] [Acid Blue 9, disodium salt of 2-({4-[N-ethyl(3-sulfonatobenzyl]amino]phenyl}{4-(N-ethyl(3-sulfonatobenzyl)imino]-2,5-cyclohexadien-1-ylidene}methyl)-benzenesulfonate]	–	water solubility: more than 20 wt. %
O=S(=O)([O-])c1ccc(N=Nc2c(O)ccc3ccccc23)cc1.[Na+] [Acid Orange 7, sodium salt of 4-[(2-hydroxy-1-naphthyl)azo]benzene sulphonate]	more than 7 g/L	–
Nc1cc(S(=O)(=O)[O-])cc2cc(S(=O)(=O)[O-])c(N=Nc3ccccc3)c(O)c12.[Na+].[Na+] [Acid Red 33, disodium salt of 5-amino-4-hydroxy-3-(phenylazo)-naphthalene-2,7-disulfonate]	2500 µg/mL	–
O=C([O-])c1c(Cl)c(Cl)c(Cl)c(Cl)c1-c1c2cc(Br)c(=O)c(Br)c-2oc2c(Br)c([O-])c(Br)cc12.[Na+].[Na+] [Acid Red 92, disodium salt of 3,4,5,6-tetrachloro-2-(1,4,5,8-tetrabromo-6-hydroxy-3-oxanthene-9-yl) benzoic acid]	greater than 10 g/L	–
O=C([O-])C1=NN(c2ccc(S(=O)(=O)[O-])cc2)C(=O)C1N=Nc1ccc(S(=O)(=O)[O-])cc1.[Na+].[Na+].[Na+] (centres unmarked) [Acid Yellow 23, trisodium salt of 4,5-dihydro-5-oxo-1-(4-sulfophenyl)-4-((4-sulfophenyl)azo)-1H-pyrazole-3-carboxylic acid]	–	solubility in water (in words): readily soluble in water
